Measured values: patent US20260144786A1, “METHOD FOR TREATING MENSTRUAL CYCLE DISORDERS” (Guangzhou HuTong Youwu Biotechnology Co., Ltd, priority 2023, published 2026)

Legend:
[1] = Use of PQQ for ameliorating or treating menstrual cycle disorders (oral tablets, six months, vitamin C control); assay type: in vivo, human; conditions: preliminary experimental data
Protocol: (§1) The criteria for menstrual cycle disorders are as follows: 1. Early menstruation: Early menstruation refers to a shortened menstrual cycle that is shorter than 21 days and occurs for more than two consecutive cycles. It is a biphasic basal body temperature of ovulatory functional uterine bleeding, a short follicular phase of only 7 or 8 days; or a luteal phase of less than 10 days, or a temperature rise of less than 0.5° C. 2. Delayed menstruation: Menstruation is missed for more than 7 days, or even 40-50 days, and symptoms appear for more than 2 menstrual cycles. […] 3. Prolonged menstruation: The symptoms of this type of menstrual disorder are mainly a normal menstrual cycle but a prolonged menstrual period, lasting more than 7 days, or even up to 2 weeks before ending. Those with inflammation usually experience lower abdominal pain, which is aggravated during menstruation. Usually, the amount of leucorrhea is heavy, yellow or yellowish-white, thick, and odorous. Those with incomplete corpus luteum atrophy are also accompanied by heavy menstruation; those with prolonged endometrial repair still experience a small amount of persistent vaginal bleeding after the normal menstrual period. 4. Irregular menstruation: Menstruation is early or late, and the cycle is shorter than 21 days or longer than 35 days. No endometriosis. […]

[2] = Use of PQQ for preventing menstrual cycle disorders (oral tablets, six months, vitamin C control); assay type: in vivo, human; conditions: preliminary experimental data
Protocol: as §1

## O=C(O)c1cc(C(=O)O)c2c(n1)C(=O)C(=O)c1cc(C(=O)O)[nH]c1-2 [PQQ, 4,5-dioxo-1H-pyrrolo[2,3-f]quinoline-2,7,9-tricarboxylic acid]
[1]
  effect on alleviating or treating menstrual cycle disorders compared with a placebo: significant effect
[2]
  effect on preventing menstrual cycle disorders compared with a placebo: significant effect
